Where a name gives a salt, the structure may show the parent alone.
biological target: LsrK (Salmonella typhimurium, UniProt Q8ZKQ6); assay: biochemical; assay type: biochemical, S. typhimurium; conditions: not given
Sequence (Q8ZKQ6 whole entry): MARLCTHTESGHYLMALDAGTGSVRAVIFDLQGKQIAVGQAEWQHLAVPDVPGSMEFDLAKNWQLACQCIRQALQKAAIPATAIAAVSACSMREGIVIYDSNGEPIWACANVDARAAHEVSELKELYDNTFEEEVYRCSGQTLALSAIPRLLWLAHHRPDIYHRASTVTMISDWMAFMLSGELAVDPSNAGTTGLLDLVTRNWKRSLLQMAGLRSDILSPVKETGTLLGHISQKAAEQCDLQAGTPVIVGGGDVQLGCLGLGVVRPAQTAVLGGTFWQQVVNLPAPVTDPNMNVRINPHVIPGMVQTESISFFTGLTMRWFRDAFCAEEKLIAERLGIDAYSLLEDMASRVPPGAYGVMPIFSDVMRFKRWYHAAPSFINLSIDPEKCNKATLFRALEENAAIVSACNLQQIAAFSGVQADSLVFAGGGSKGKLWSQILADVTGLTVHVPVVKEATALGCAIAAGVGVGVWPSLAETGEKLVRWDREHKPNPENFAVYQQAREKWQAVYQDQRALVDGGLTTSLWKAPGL

| SMILES | inhibition at 50 µM [%] |
| --- | --- |
| C[C@H]1O[C@@H](n2cc(F)c(=O)[nH]c2=O)[C@H](O)[C@@H]1O [DOXIFLURIDINE] | 1 |
| C[C@H]1c2cccc(O)c2C(=O)C2=C(O)[C@]3(O)C(=O)C(C(N)=O)=C(O)[C@@H](N(C)C)[C@@H]3[C@@H](O)[C@@H]21 [DOXYCYCLINE HYDROCHLORIDE] | 106 |
| CCN(CC)CCOC(=O)C(c1ccccc1)C1CCCCC1 (centres unmarked) [DROFENINE HYDROCHLORIDE] | 0 |
| CNCC[C@H](Oc1cccc2ccccc12)c1cccs1 [DULOXETINE HYDROCHLORIDE] | 1 |
| CCCCOc1ccc(C(=O)CCN2CCCCC2)cc1 [DYCLONINE HYDROCHLORIDE] | 131 |
| Cn1c(=O)c2c(ncn2CC(O)CO)n(C)c1=O (centres unmarked) [DYPHYLLINE] | 1 |
| COc1cc(C)c(C(=O)Oc2cc(C)c(C(=O)O)c(O)c2C)c(OC)c1C [D[…]] | 35 |
| O=c1c2ccccc2[se]n1-c1ccccc1 [EBSELEN] | 6 |
| CCc1cn([C@H]2C[C@H](O)[C@@H](CO)O2)c(=O)[nH]c1=O [EDOXUDINE] | 0 |
| CC[N+](C)(C)c1cccc(O)c1 [EDROPHONIUM CHLORIDE] | 0 |
| O=c1oc2c(O)c(O)cc3c(=O)oc4c(O)c(O)cc1c4c23 [ELLAGIC ACID] | 7 |
| CCn1cc(C(=O)O)c(=O)c2cc(F)c(N3CCNCC3)nc21 [ENOXACIN] | 0 |
| CC1(C)[C@@H](O)CC[C@]2(C)[C@H]3C(=O)C=C4[C@@H]5C[C@@](C)(C(=O)O)CC[C@]5(C)CC[C@@]4(C)[C@]3(C)CC[C@@H]12 [ENOXOLONE] | 2 |
| CCN1CCN(c2cc3c(cc2F)c(=O)c(C(=O)O)cn3C2CC2)CC1 [ENROFLOXACIN] | 1 |
| Oc1cc(O)c2c(c1)O[C@H](c1ccc(O)c(O)c1)[C@H](O)C2 [EPICATECHIN] | 2 |
| Oc1cc(O)c2c(c1)O[C@H](c1cc(O)c(O)c(O)c1)[C@H](O)C2 [EPIGALLOCATECHIN] | 89 |
| C[C@]12CC[C@H]3[C@@H](CCC4=CC(=O)CC[C@@]43C)[C@@H]1CC[C@H]2O [EPITESTOSTERONE] | 0 |
| C[C@]12CC[C@H]3C(=CCc4cc(O)ccc43)[C@@H]1CCC2=O [EQUILIN] | 1 |
| CC(C)[C@@H](C)/C=C/[C@@H](C)[C@H]1CC[C@H]2C3=CC=C4C[C@@H](O)CC[C@]4(C)[C@H]3CC[C@]12C [ERGOSTEROL] | 0 |

| SMILES | inhibition at 50 µM [%] |
| --- | --- |
| CN1C[C@H](C(=O)N[C@]2(C)O[C@@]3(O)[C@@H]4CCCN4C(=O)[C@H](Cc4ccccc4)N3C2=O)C=C2c3cccc4[nH]cc(c34)C[C@H]21 [ERGOTAMINE TARTRATE] | 2 |
| CCC(=O)O[C@H]1[C@H](O[C@@H]2[C@@H](C)[C@H](O[C@H]3C[C@@](C)(OC)[C@@H](O)[C@H](C)O3)[C@@H](C)C(=O)O[C@H](CC)[C@@](C)(O)[C@H](O)[C@@H](C)C(=O)[C@H](C)C[C@@]2(C)O)O[C@H](C)C[C@@H]1N(C)C [ERYTHROMYCIN ESTOLATE] | 10 |
| CCOC(=O)CCC(=O)O[C@H]1[C@H](O[C@@H]2[C@@H](C)[C@H](O[C@H]3C[C@@](C)(OC)[C@@H](O)[C@H](C)O3)[C@@H](C)C(=O)O[C@H](CC)[C@@](C)(O)[C@H](O)[C@@H](C)C(=O)[C@H](C)C[C@@]2(C)O)O[C@H](C)C[C@@H]1N(C)C [ERYTHROMYCIN ETHYLSUCCINATE] | 1 |
| CC[C@H]1OC(=O)[C@H](C)[C@@H](O[C@H]2C[C@@](C)(OC)[C@@H](O)[C@H](C)O2)[C@H](C)[C@@H](O[C@@H]2O[C@H](C)C[C@H](N(C)C)[C@H]2O)[C@](C)(O)C[C@@H](C)C(=O)[C@H](C)[C@@H](O)[C@]1(C)O [ERYTHROMYCIN] | 0 |
| CN(C)CCC[C@@]1(c2ccc(F)cc2)OCc2cc(C#N)ccc21 [ESCITALOPRAM OXALATE] | 1 |
| C[C@]12CC[C@@H]3c4ccc(O)cc4CC[C@H]3[C@@H]1CC[C@@H]2OC(=O)CCC1CCCC1 [ESTRADIOL CYPIONATE] | 0 |
| COc1ccc2c(c1)CC[C@@H]1[C@@H]2CC[C@]2(C)[C@@H](O)CC[C@@H]12 [ESTRADIOL METHYL ETHER] | 3 |
| CCCCC(=O)O[C@H]1CC[C@H]2[C@@H]3CCc4cc(O)ccc4[C@H]3CC[C@]12C [ESTRADIOL VALERATE] | 3 |
| CCOc1ccc2nc3cc(N)ccc3c(N)c2c1 [ETHACRIDINE LACTATE] | 1 |
| C=C(CC)C(=O)c1ccc(OCC(=O)O)c(Cl)c1Cl [ETHACRYNIC ACID] | 85 |
| C#C[C@]1(O)CC[C@H]2[C@@H]3CCc4cc(O)ccc4[C@H]3CC[C@@]21C [ETHINYL ESTRADIOL] | 1 |
| CCC1(C)CC(=O)NC1=O (centres unmarked) [ETHOSUXIMIDE] | 17 |
| CCC(N)C(O)c1ccc(O)c(O)c1 (centres unmarked) [ETHYLNOREPINEPHRINE HYDROCHLORIDE] | 4 |
| CCOC(=O)c1cncn1[C@H](C)c1ccccc1 [ETOMIDATE] | 2 |
| COc1cc([C@@H]2c3cc4c(cc3[C@@H](O[C@@H]3O[C@@H]5CO[C@@H](C)O[C@H]5[C@H](O)[C@H]3O)[C@H]3COC(=O)[C@H]23)OCO4)cc(OC)c1O [ETOPOSIDE] | 1 |
| C=C1C[C@@H]2[C@H](CC[C@]3(C)C(=O)CC[C@@H]23)[C@@]2(C)C=CC(=O)C=C12 [EXEMESTANE] | 11 |
| O=C(O)CCC(=O)c1ccc(-c2ccccc2)cc1 [FENBUFEN] | 2 |
| CC(NCCC(c1ccccc1)c1ccccc1)c1ccccc1 (centres unmarked) [FENDILINE HYDROCHLORIDE] | 0 |
| CC(C)OC(=O)C(C)(C)Oc1ccc(C(=O)c2ccc(Cl)cc2)cc1 [FENOFIBRATE] | 1 |

| SMILES | inhibition at 50 µM [%] |
| --- | --- |
| CC(C)(C(=O)O)c1ccc(C(O)CCCN2CCC(C(O)(c3ccccc3)c3ccccc3)CC2)cc1 (centres unmarked) [FEXOFENADINE HYDROCHLORIDE] | 0 |
| CC(C)(C)NC(=O)[C@H]1CC[C@H]2[C@@H]3CC[C@H]4NC(=O)C=C[C@]4(C)[C@H]3CC[C@]12C [FINASTERIDE] | 1 |
| O=c1c(O)c(-c2ccc(O)c(O)c2)oc2cc(O)ccc12 [FISETIN] | 33 |
| CS(=O)(=O)c1ccc([C@@H](O)[C@@H](CF)NC(=O)C(Cl)Cl)cc1 [FLORFENICOL] | 2 |
| O=c1[nH]c(=O)n([C@H]2C[C@H](O)[C@@H](CO)O2)cc1F [FLOXURIDINE] | 0 |
| Nc1[nH]c(=O)ncc1F [FLUCYTOSINE] | 0 |
| Nc1nc(F)nc2c1ncn2[C@@H]1O[C@H](COP(=O)(O)O)[C@@H](O)[C@@H]1O [FLUDARABINE PHOSPHATE] | 0 |
| CC(=O)OCC(=O)[C@@]1(O)CC[C@H]2[C@@H]3CCC4=CC(=O)CC[C@]4(C)[C@@]3(F)[C@@H](O)C[C@@]21C [FLUDROCORTISONE ACETATE] | 2 |
| O=C(O)c1ccccc1Nc1cccc(C(F)(F)F)c1 [FLUFENAMIC ACID] | 62 |
| CC(=O)OCC(=O)[C@@]12OC(C)(C)O[C@@H]1C[C@H]1[C@@H]3C[C@H](F)C4=CC(=O)C=C[C@]4(C)[C@@]3(F)[C@@H](O)C[C@@]12C [FLUOCINONIDE] | 3 |
| O=C1OC2(c3ccc(O)cc3Oc3cc(O)ccc32)c2ccccc21 [FLUORESCEIN] | 1 |
| O=c1[nH]cc(F)c(=O)[nH]1 [FLUOROURACIL] | 0 |
| CC(C)C(=O)Nc1ccc([N+](=O)[O-])c(C(F)(F)F)c1 [FLUTAMIDE] | 2 |
| CC(C)n1c(/C=C/C(O)CC(O)CC(=O)O)c(-c2ccc(F)cc2)c2ccccc21 (centres unmarked) [FLUVASTATIN] | 6 |
| Nc1nc(=O)c2nc(CNc3ccc(C(=O)N[C@@H](CCC(=O)O)C(=O)O)cc3)cnc2[nH]1 [FOLIC ACID] | 90 |
| O=C(O)P(=O)(O)O [FOSCARNET SODIUM] | 1 |
| C[C@@H]1O[C@@H]1P(=O)(O)O [FOSFOMYCIN CALCIUM] | 1 |
| O=C(O)c1ccccc1OP(=O)(O)O [FOSFOSAL] | 0 |
| COc1cc2ccc(=O)oc2c(OC)c1OC [FRAXIDIN METHYL ETHER] | 1 |

same assay, conditions: 50 µM

| SMILES | Inhibition (%) |
| --- | --- |
| CCC(C)C(=O)O[C@@H]1C[C@@]2(C)[C@H](c3ccoc3)OC(=O)CC23OC2(C)OC34[C@H](OC(=O)C(C)C)[C@@]3(O)[C@@H](OC(=O)C5(C)OC5C)[C@@]5(C)C[C@]3(O)[C@@](C)([C@H]5CC(=O)OC)C14O2 (some centres unmarked) [ENTANDROPHRAGMIN] | 1 |
| O=C(O[C@@H]1Cc2c(O)cc(O)cc2O[C@@H]1c1ccc(O)c(O)c1)c1cc(O)c(O)c(O)c1 [EPICATECHIN MONOGALLATE] | 86 |
| O=C(Oc1cc(O)cc2c1C[C@@H](OC(=O)c1cc(O)c(O)c(O)c1)[C@@H](c1cc(O)c(O)c(O)c1)O2)c1cc(O)c(O)c(O)c1 [EPIGALLOCATECHIN 3.5-DIGALLATE] | 88 |
| O=C(O[C@@H]1Cc2c(O)cc(O)cc2O[C@@H]1c1cc(O)c(O)c(O)c1)c1cc(O)c(O)c(O)c1 [EPIGALLOCATECHIN-3-MONOGALLATE] | 87 |
| CC(=O)O[C@@H]1CC2C(C)(C)C(=O)C3OC3[C@]2(C)C2CC[C@@]3(C)[C@H](c4ccoc4)OC(=O)C4OC43[C@@]21C (some centres unmarked) [EPOXYGEDUNIN] | 0 |
| CC(=O)O[C@H]1CC[C@@]2(C)C(=CC=C3[C@@H]4CC[C@H]([C@H](C)/C=C/[C@H](C)C(C)C)[C@@]4(C)CC[C@@H]32)C1 [ERGOSTEROL ACETATE] | 2 |
| O=C([O-])c1ccccc1-c1c2cc(I)c(=O)c(I)c-2oc2c(I)c([O-])c(I)cc12.[Na+].[Na+] [ERYTHROSINE SODIUM] | 69 |
| C[C@]12CCC3c4ccc(OS(=O)(=O)[O-])cc4CCC3C1CC[C@H]2O.[Na+] (some centres unmarked) [ESTRADIOL-3-SULFATE. SODIUM SALT] | 0 |
| CCc1cc(Cl)c(OC)c(C(=O)NC[C@@H]2CCCN2CC)c1O.Cl [ETICLOPRIDE HYDROCHLORIDE] | 2 |
| CC(=O)O[C@H]1CCC2(C)C3=C(CCC2C1(C)C)[C@@]1(C)CC[C@@H](C(C)CCC=C(C)C)[C@]1(C)CC3 (some centres unmarked) [EUPHOL ACETATE] | 1 |
| CC(=O)O[C@H]1[C@H]2[C@@H](OC(=O)Cc3ccccc3)[C@@H](C)C[C@]2(OC(C)=O)C(=O)/C(C)=C/[C@@H]2[C@H](CC[C@@]13CO3)C2(C)C [EUPHORBIASTEROID] | 1 |
